Reference: US9199962B2, “Substituted azaheterocycles for the treatment of cancer” (Merck Patent GmbH, priority 2011, dated 2015)
Where two headings read alike, the source gives them in different places.

What was measured:
[1] = target: T1, GST-FAK (N-terminal GST fusion with truncated human FAK (376-1052 (end) amino acids)) (Homo sapiens, UniProt Q05397); test: Biochemical enzyme assay for FAK activity (Caliper LC3000 mobility shift); details: 100 uM ATP, read-out: FAK IC50
T1 construct: truncated human FAK (376-1052 (end) amino acids)
T1 sequence (Q05397 376-1052): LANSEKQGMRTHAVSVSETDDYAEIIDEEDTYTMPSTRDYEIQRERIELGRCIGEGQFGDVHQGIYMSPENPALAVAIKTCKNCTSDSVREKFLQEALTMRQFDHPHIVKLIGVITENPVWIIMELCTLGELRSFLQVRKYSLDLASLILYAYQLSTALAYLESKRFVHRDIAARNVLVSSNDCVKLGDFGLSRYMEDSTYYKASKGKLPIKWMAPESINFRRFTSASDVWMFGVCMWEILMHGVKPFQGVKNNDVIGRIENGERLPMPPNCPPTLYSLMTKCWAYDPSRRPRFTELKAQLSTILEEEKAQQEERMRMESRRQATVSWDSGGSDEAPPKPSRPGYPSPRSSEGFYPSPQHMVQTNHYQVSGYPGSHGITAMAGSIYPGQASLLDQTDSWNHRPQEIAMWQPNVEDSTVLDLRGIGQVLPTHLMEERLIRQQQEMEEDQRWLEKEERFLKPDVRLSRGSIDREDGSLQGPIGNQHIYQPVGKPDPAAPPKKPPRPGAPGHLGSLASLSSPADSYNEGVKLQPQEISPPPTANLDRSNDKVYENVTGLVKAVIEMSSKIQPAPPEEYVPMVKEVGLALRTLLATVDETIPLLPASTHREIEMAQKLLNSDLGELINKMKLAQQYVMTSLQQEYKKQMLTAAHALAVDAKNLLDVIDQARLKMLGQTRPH
How it was run: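 Inhibitor dose series in DMSO were incubated 90 min at 25 °C with truncated GST-tagged human FAK (0.067 ng/µl) and FITC-labelled peptide substrate (1 µM), with ATP at 100 µM and FERM peptide at 1 mM (pH 7.5 HEPES). After EDTA quench, phosphorylated and unphosphorylated peptides were resolved electrophoretically. Percent conversion was fitted for IC50.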

[2] = target: T2, focal adhesion kinase (FAK) autophosphorylation at tyrosine 397 in HT29 cells (Homo sapiens, UniProt Q05397); test: Cellular testing of FAK inhibitors: FAK autophosphorylation at tyrosine 397 in HT29 cells (Luminex-based assay); assay type: cell-based; details: 30 min serum-free, read-out: HT-29 IC50
T2 construct: endogenous in cells; host or cells: HT29
T2 sequence (Q05397 whole entry): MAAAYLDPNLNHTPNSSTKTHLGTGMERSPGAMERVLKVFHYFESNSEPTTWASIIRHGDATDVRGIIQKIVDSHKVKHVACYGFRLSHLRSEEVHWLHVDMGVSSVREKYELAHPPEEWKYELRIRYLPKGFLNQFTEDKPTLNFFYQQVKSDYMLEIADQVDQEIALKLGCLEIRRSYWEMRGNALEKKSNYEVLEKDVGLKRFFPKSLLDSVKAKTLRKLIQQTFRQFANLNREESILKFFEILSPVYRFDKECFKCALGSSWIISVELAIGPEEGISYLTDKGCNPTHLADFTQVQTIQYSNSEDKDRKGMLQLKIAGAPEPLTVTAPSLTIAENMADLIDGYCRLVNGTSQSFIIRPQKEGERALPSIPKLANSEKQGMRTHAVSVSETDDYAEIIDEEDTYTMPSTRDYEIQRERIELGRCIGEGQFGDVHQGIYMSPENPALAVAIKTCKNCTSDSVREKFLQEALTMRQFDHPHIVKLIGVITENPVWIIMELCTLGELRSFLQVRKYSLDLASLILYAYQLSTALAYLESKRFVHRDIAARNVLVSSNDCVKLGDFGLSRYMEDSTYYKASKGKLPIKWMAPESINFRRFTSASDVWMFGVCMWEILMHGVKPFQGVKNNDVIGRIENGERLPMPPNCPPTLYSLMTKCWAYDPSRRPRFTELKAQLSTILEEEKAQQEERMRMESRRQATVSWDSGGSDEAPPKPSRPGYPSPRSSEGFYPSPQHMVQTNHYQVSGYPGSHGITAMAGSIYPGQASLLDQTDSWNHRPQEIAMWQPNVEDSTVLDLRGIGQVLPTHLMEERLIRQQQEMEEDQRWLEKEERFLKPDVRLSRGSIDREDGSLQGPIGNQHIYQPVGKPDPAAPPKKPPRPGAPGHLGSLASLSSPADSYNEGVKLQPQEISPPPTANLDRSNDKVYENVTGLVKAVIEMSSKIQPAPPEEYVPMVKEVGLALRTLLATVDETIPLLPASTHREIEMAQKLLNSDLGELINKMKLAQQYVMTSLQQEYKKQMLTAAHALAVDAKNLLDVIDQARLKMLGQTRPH
Method: 2. Assay Principle for Celluar Testing of FAK Inhibitors
Cellular activity of focal adhesion kinase (FAK) is determined by the degree of FAK autophosphorylation at tyrosine 397 using a Luminex-based assay. HT29 cells are plated with 30,000 cells per well of a 96-well plate in 100 μl medium (90% DMEM/10% FCS). At the following day, test compounds are added in a serial dilution under serum-free conditions for 30 min. Then, cells were lysed with 90 μl lysis buffer (20 mM Tris/HCl pH 8.0, 150 mM NaCl, 1% NP40, 10% Glycerol, 1% Phosphatase-Inhibitor II, 20 mM […]-Glycerolphosphat, 0.1% Protease-Inhibitor Cocktail III, 0.01% Benzonase) and lysates were cleared by centrifugation through a 96-well filter plate (0.65 μm). Samples were incubated with Luminex-beads which were coupled with an anti-total FAK antibody overnight at 4° C. with under gentle agitation. For detection of phospho-Y397-FAK a phosphospecific antibody and a species specific PE-labeled secondary antibody are added. The amount of phospho-Y397-FAK is determined in a Luminex100 machine measuring 100 events per well within 60 seconds.
Counts from samples treated with a FAK reference inhibitor are subtracted as pharmacological blank. Counts from samples treated with test compounds are calculated as percent of control from solvent treated (0.3% DMSO) samples. IC50 values were determined using AssayExplorer software.

IC50 ([1]; Table 2) | IC50 ([2]; Table 2, phospho-Y397-FAK) | IC50 ([1]; Table 3) | IC50 ([2]; Table 3, phospho-Y397-FAK) | SMILES
0.1 to 1 µM | > 10 µM | – | – | CN(C)CCCCNc1cc(NCc2ccc(F)cc2F)nc(-c2cncc(C(F)(F)F)c2)n1 [Compound 65, N-(2,4-Difluoro-benzyl)-N′-(4-dimethylamino-butyl)-2-(5-trifluoromethyl-pyridin-3-yl)-pyrimidine-4,6-diamine]
0.1 to 1 µM | 1 to 10 µM | – | – | CCN(CC)C(=O)CCNc1cc(NCc2ccc(F)cc2F)nc(-c2cncc(C(F)(F)F)c2)n1 [Compound 62, 3-[6-(2,4-Difluoro-benzylamino)-2-(5-trifluoromethyl-pyridin-3-yl)-pyrimidin-4-ylamino]-N,N-diethyl-propionamide]
< 0.1 µM | 1 to 10 µM | – | – | Fc1ccc(CNc2cc(NCCCN3CCOCC3)nc(-c3cncc(C(F)(F)F)c3)n2)c(F)c1 [Compound 58, N-(2,4-Difluoro-benzyl)-N′-(3-morpholin-4-yl-propyl)-2-(5-trifluoromethyl-pyridin-3-yl)-pyrimidine-4,6-diamine]
< 0.1 µM | 1 to 10 µM | – | – | CN(C)CCCNc1cc(NCc2ccc(F)cc2F)nc(-c2cncc(C(F)(F)F)c2)n1 [Compound 60, N-(2,4-Difluoro-benzyl)-N′-(3-dimethylamino-propyl)-2-(5-trifluoromethyl-pyridin-3-yl)-pyrimidine-4,6-diamine]
– | – | 0.1 to 1 µM | > 10 µM | Nc1ncccc1-c1nccc(NCc2ccc(F)cc2F)n1 [Compound 98, 2-(2-Aminopyridin-3-yl)-N-(2,4-difluorobenzyl)pyrimidin-4-amine]
– | – | < 0.1 µM | 1 to 10 µM | FC(F)(F)c1cncc(-c2nccc(NCc3ccc(Cl)cc3C(F)(F)F)n2)c1 [Compound 132, N-[4-Chloro-2-(trifluoromethyl)benzyl]-2-[5-(trifluoro-methyl)pyridin-3-yl]pyrimidin-4-amine]
– | – | 0.1 to 1 µM | > 10 µM | CC(Nc1ccnc(-c2cccnc2N)n1)c1ccccc1C(F)(F)F (stereo not drawn) [Compound 115, 2-(2-Aminopyridin-3-yl)-N-{1-[2-(trifluoro-methyl)phenyl]ethyl}pyrimidin-4-amine]
< 0.1 µM | 0.1 to 1 µM | – | – | NC(=O)CNC(=O)c1cc(NCc2ccc(F)cc2F)nc(-c2cncc(C(F)(F)F)c2)n1 [Compound 72, 6-(2,4-Difluoro-benzylamino)-2-(5-trifluoromethyl-pyridin-3-yl)-pyrimidine-4-carboxylic acid carbamoylmethyl-amide]
< 0.1 µM | 0.1 to 1 µM | – | – | O=C(NCCCN1CCCC1=O)c1cc(NCc2ccc(F)cc2F)nc(-c2cncc(C(F)(F)F)c2)n1 [Compound 47, 6-(2,4-Difluoro-benzylamino)-2-(5-trifluoromethyl-pyridin-3-yl)-pyrimidine-4-carboxylic acid [3-(2-oxo-pyrrolidin-1-yl)-propyl]-amide]
